According to ChEMBL document CHEMBL3046429, “Synthesis, molecular modeling study, preliminary antibacterial, and antitumor evaluation of N-substituted naphthalimides and their structural analogues” (2013):
≈ marks a conversion by molar mass, not a printed value.

How the values were obtained:
Type in all cases: functional
SF-295 = test: Growth inhibition of Homo sapiens (human) SF295 cells at 10 uM after 48 hr by coulter counter analysis; settings: SF-295, 48 h, read-out: GI
SF-268 = test: Growth inhibition of Homo sapiens (human) SF268 cells at 10 uM after 48 hr by coulter counter analysis; settings: SF-268, 48 h, read-out: GI
SK-MEL-2 = test: Growth inhibition of Homo sapiens (human) SK-MEL-2 cells at 10 uM after 48 hr by coulter counter analysis; settings: SK-MEL-2, 48 h, read-out: GI
Malme-3M = test: Growth inhibition of Homo sapiens (human) MALME-3M cells at 10 uM after 48 hr by coulter counter analysis; settings: read-out: GI
LOX IMVI = test: Growth inhibition of Homo sapiens (human) LOXIMVI cells at 10 uM after 48 hr by coulter counter analysis; settings: read-out: GI
RXF 393 = test: Growth inhibition of Homo sapiens (human) RXF393 cells at 10 uM after 48 hr by coulter counter analysis; settings: RXF 393, 48 h, read-out: GI
786-0 = test: Growth inhibition of Homo sapiens (human) 786-0 cells at 10 uM after 48 hr by coulter counter analysis; settings: 786-0, 48 h, read-out: GI
A498 = test: Growth inhibition of Homo sapiens (human) A498 cells at 10 uM after 48 hr by coulter counter analysis; settings: A498, 48 h, read-out: GI
RPMI-8226 = test: Growth inhibition of Homo sapiens (human) RPMI8226 cells at 10 uM after 48 hr by coulter counter analysis; settings: RPMI-8226, 48 h, read-out: GI
MOLT-4 = test: Growth inhibition of Homo sapiens (human) MOLT4 cells at 10 uM after 48 hr by coulter counter analysis; settings: MOLT-4, 48 h, read-out: GI
CCRF-CEM = test: Growth inhibition of Homo sapiens (human) CCRF-CEM cells at 10 uM after 48 hr by coulter counter analysis; settings: read-out: GI
SNB-19 = test: Growth inhibition of Homo sapiens (human) SNB19 cells at 10 uM after 48 hr by coulter counter analysis; settings: SNB-19, 48 h, read-out: GI
SF-539 = test: Growth inhibition of Homo sapiens (human) SF539 cells at 10 uM after 48 hr by coulter counter analysis; settings: SF-539, 48 h, read-out: GI
COLO 205 = test: Growth inhibition of Homo sapiens (human) COLO205 cells at 10 uM after 48 hr by coulter counter analysis; settings: COLO 205, 48 h, read-out: GI
NCI-H23 = test: Growth inhibition of Homo sapiens (human) NCI-H23 cells at 10 uM after 48 hr by coulter counter analysis; settings: NCI-H23, 48 h, read-out: GI
NCI-H460 = test: Growth inhibition of Homo sapiens (human) NCI-H460 cells at 10 uM after 48 hr by coulter counter analysis; settings: NCI-H460, 48 h, read-out: GI
NCI-H226 = test: Growth inhibition of Homo sapiens (human) NCI-H226 cells at 10 uM after 48 hr by coulter counter analysis; settings: NCI-H226, 48 h, read-out: GI
PC-3 = test: Growth inhibition of Homo sapiens (human) PC3 cells at 10 uM after 48 hr by coulter counter analysis; settings: PC-3, 48 h, read-out: GI
SK-OV-3 = test: Growth inhibition of Homo sapiens (human) SKOV3 cells at 10 uM after 48 hr by coulter counter analysis; settings: SK-OV-3, 48 h, read-out: GI
OVCAR-8 = test: Growth inhibition of Homo sapiens (human) OVCAR8 cells at 10 uM after 48 hr by coulter counter analysis; settings: OVCAR-8, 48 h, read-out: GI
OVCAR-5 = test: Growth inhibition of Homo sapiens (human) OVCAR5 cells at 10 uM after 48 hr by coulter counter analysis; settings: OVCAR-5, 48 h, read-out: GI
MDA-MB-468 = test: Growth inhibition of Homo sapiens (human) MDA-MB-468 cells at 10 uM after 48 hr by coulter counter analysis; settings: MDA-MB-468, 48 h, read-out: GI
MDA-MB-231 = test: Growth inhibition of Homo sapiens (human) MDA-MB-231/ATCC cells at 10 uM after 48 hr by coulter counter analysis; settings: MDA-MB-231, 48 h, read-out: GI
BT-549 = test: Growth inhibition of Homo sapiens (human) BT549 cells at 10 uM after 48 hr by coulter counter analysis; settings: BT-549, 48 h, read-out: GI
SW-620 = test: Growth inhibition of Homo sapiens (human) SW620 cells at 10 uM after 48 hr by coulter counter analysis; settings: SW-620, 48 h, read-out: GI
HCT-15 = test: Growth inhibition of Homo sapiens (human) HCT15 cells at 10 uM after 48 hr by coulter counter analysis; settings: HCT-15, 48 h, read-out: GI
HT-29 = test: Growth inhibition of Homo sapiens (human) HT-29 cells at 10 uM after 48 hr by coulter counter analysis; settings: HT-29, 48 h, read-out: GI
HCT-116 = test: Growth inhibition of Homo sapiens (human) HCT116 cells at 10 uM after 48 hr by coulter counter analysis; settings: HCT-116, 48 h, read-out: GI
A549 = test: Growth inhibition of Homo sapiens (human) A549/ATCC cells at 10 uM after 48 hr by coulter counter analysis; settings: A549, 48 h, read-out: GI
SNB-75 = test: Growth inhibition of Homo sapiens (human) SNB75 cells at 10 uM after 48 hr by coulter counter analysis; settings: SNB-75, 48 h, read-out: GI
UO-31 = test: Growth inhibition of Homo sapiens (human) UO31 cells at 10 uM after 48 hr by coulter counter analysis; settings: UO-31, 48 h, read-out: GI
NCI-H522 = test: Growth inhibition of Homo sapiens (human) NCI-H522 cells at 10 uM after 48 hr by coulter counter analysis; settings: NCI-H522, 48 h, read-out: GI
SN12C = test: Growth inhibition of Homo sapiens (human) SN12C cells at 10 uM after 48 hr by coulter counter analysis; settings: read-out: GI
HOP-92 = test: Growth inhibition of Homo sapiens (human) HOP92 cells at 10 uM after 48 hr by coulter counter analysis; settings: HOP-92, 48 h, read-out: GI
Pseudomonas aeruginosa = test: Antibacterial activity against Pseudomonas aeruginosa assessed as growth inhibition after 24 hr by two-fold serial dilution method
Bacillus subtilis = test: Antibacterial activity against Bacillus subtilis assessed as growth inhibition after 24 hr by two fold serial dilution method
Staphylococcus aureus = test: Antibacterial activity against Staphylococcus aureus assessed as growth inhibition after 24 hr by two fold serial dilution method

`O=C1c2nccnc2C(=O)N1c1c(Cl)cc(Cl)cc1Cl` showed an inhibition of growth at 10 µM (SF-295) of -2.42%, an inhibition of growth at 10 µM (SF-268) of 7.64% and an inhibition of growth at 10 µM (SK-MEL-2) of -0.16%. For the same molecule, the inhibition of growth at 10 µM (Malme-3M) was 21.1%, the inhibition of growth at 10 µM (LOX IMVI) was -0.26% and the inhibition of growth at 10 µM (RXF 393) was -25.2%. It also gave an inhibition of growth at 10 µM (786-0) of 2.39%, an inhibition of growth at 10 µM (A498) of 20.9% and an inhibition of growth at 10 µM (RPMI-8226) of 4.32%. The inhibition of growth at 10 µM (MOLT-4) was 1.21%, the inhibition of growth at 10 µM (CCRF-CEM) was 3.38% and the inhibition of growth at 10 µM (SNB-19) was -2.3%. It also gave an inhibition of growth at 10 µM (SF-539) of 8.66%, an inhibition of growth at 10 µM (COLO 205) of 8.27% and an inhibition of growth at 10 µM (NCI-H23) of 0.61%. For the same molecule, the inhibition of growth at 10 µM (NCI-H460) was -7.91%, the inhibition of growth at 10 µM (NCI-H226) was 9.41% and the inhibition of growth at 10 µM (PC-3) was 22.7%. For the same molecule, the inhibition of growth at 10 µM (SK-OV-3) was 4.55%, the inhibition of growth at 10 µM (OVCAR-8) was 11% and the inhibition of growth at 10 µM (OVCAR-5) was -1.7%. For the same molecule, the inhibition of growth at 10 µM (MDA-MB-468) was 17.8%, the inhibition of growth at 10 µM (MDA-MB-231) was 7.23% and the inhibition of growth at 10 µM (BT-549) was 4.48%. It also gave an inhibition of growth at 10 µM (SW-620) of -7.54%, an inhibition of growth at 10 µM (HCT-15) of 7.09% and an inhibition of growth at 10 µM (HT-29) of 4.24%. It also gave an inhibition of growth at 10 µM (HCT-116) of 1.17%, an inhibition of growth at 10 µM (A549) of -11.7% and an inhibition of growth at 10 µM (SNB-75) of 47.4%. It also gave an inhibition of growth at 10 µM (UO-31) of 72.9%, an inhibition of growth at 10 µM (NCI-H522) of 14.9% and an inhibition of growth at 10 µM (SN12C) of 22.7%. It also gave an inhibition of growth at 10 µM (HOP-92) of 57.1%, an MIC (Pseudomonas aeruginosa) of 20 µg/mL (≈ 60.9 µM) and an MIC (Bacillus subtilis) of 20 µg/mL (≈ 60.9 µM). The “-logMIC” value (Staphylococcus aureus) was 4.22 and the MIC (Staphylococcus aureus; Staphylococcus aureus, 24 h) was 20 µg/mL (≈ 60.9 µM).
